A short description of the test: Test Example 1: impact of tension on hair straightening. The conditions noted are these: then shampooed. The method, then: Three samples A-C of frizzy hair (bundles of 2 g Indian frizz hair, untreated, obtained from IHIP, International Hair Importers & Products, NY; see FIG. 1A) were shampooed, rinsed off with water and dried at ambient temperature. Then, an aqueous solution of 10 wt. % glyoxylic acid (pH 1.5, adjusted with NaOH) was applied to the samples A-C at a ratio of hair to solution of 1:1, uniformly distributed with a comb and left on the hair for 15 minutes at 40° C. Then, the samples were dried with a hair drier at a temperature of 90-100° C. for 10 minutes. The temperature was measured by holding an infrared thermometer at a distance of about 20 to 40 cm from the hair and scanning the area where the air stream comes into contact with the hair. The average of at least ten readings is then taken as the temperature. Samples A and B (Reference) were dried in the absence of mechanical tension and serve as reference samples. To sample C, mechanical tension was applied by fixing one end and holding the sample in an elongated state using a round brush. Reference sample B was subsequently treated with a straightening iron at a temperature of 230° C. The samples A-C were rinsed off with water, shampooed, combed and dried at ambient temperature.

Turning to `O=CC(=O)O` [glyoxylic acid], the “straightening of hair after treatment” value is, setting by setting: (sample A (reference): 10 wt. % aqueous solution pH 1.5, dried with hair drier 90-100° C. in relaxed state, no mechanical tension) “does not lead to a substantial straightening”; (sample B (reference): 10 wt. % aqueous solution pH 1.5, dried without tension, then straightening iron at 230° C.) “straightening of the hair”. For the setting “sample C: 10 wt. % aqueous solution pH 1.5, 15 min at 40° C., dried with hair drier 90-100° C. for 10 min under mechanical tension (round brush), no iron, versus sample A”, the “appearance of hair after treatment (straightening, frizz)” value is “remarkable straightened appearance and reduced frizz”.

The record behind these values is patent US10864150B2, “Hair treatment process” (KAO CORPORATION, priority 2013, dated 2020).
